Consider 13 compounds from patent US10370372B2, “Fused pyrimidine compound or salt thereof” (TAIHO PHARMACEUTICAL CO., LTD., priority 2015, dated 2019).

The structures appear in SMILES notation. Like-named read-outs stand apart in the source and are kept apart here.

Holding throughout (assay type): cell-based
The test system of one test is AR expression in LNCaP. Description: Activity of reducing expression level of androgen receptor (Western blotting in LNCaP). To be noted: Homo sapiens, read-out: AR expression reducing activity. As for the experimental part: AR positive human prostate cancer cells LNCaP were seeded in a 6 well microplate (BD) at 3.5×10^5/well with RPMI1640 containing 5% FBS (hereinbelow, the medium is referred to as an evaluation medium), and then cultured overnight. […] After culture for 48 hours, the medium was removed and the cells were washed with PBS and added with 0.1 mL of Lysis buffer (M-PER added with Protease Inhibitor Cocktail), followed by keeping at 4° C. for 20 minutes. After cell lysis, the cell solution was centrifuged to recover the supernatant as cell lysate. […] The antibody-reacting band (anti AR receptor) was quantified by LAS Imaging System (FUJIFILM) using Super Signal West Dura Substrate (Thermo Scientific) as a detection reagent.
When the AR expression reducing activity is 50% or more, it is described as “reduced”.
For orientation: In western blotting, separated proteins are transferred to a membrane and probed.

For test [1], the system named is AR positive human prostate cancer cells VCaP. Description: Agonist activity for AR: cell proliferation rate of VCaP cells. To be noted: 5-10000 nmol/L, 72 hours, relative to evaluation medium only, more than 10% = agonist activity. The procedure:
Then, the number of viable cells was measured (test group). As a control, the cells were cultured after being added with the evaluation medium only, and the number of viable cells was measured (control group). The number of viable cells was measured by using CellTiter-Glo™ Luminescent Cell Viability Assay (Promega). From the measured number of viable cells, cell proliferation rate with respect to the compound of Examples or the compound of Comparative Examples was calculated based on the number of viable cells measured in the case of using the evaluation medium only. Cell proliferation rate (%)=(Number of viable cells in test group−Number of viable cells in control group)/(Number of viable cells in control group)×100
By considering an error in the number of viable cells measured in the case of using the evaluation medium only, when the cell proliferation rate was more than 10% at any concentration of the 8 concentrations which had been evaluated, it was determined to have an agonist activity for AR.

The target of another test is T1, human androgen receptor (Homo sapiens, UniProt P10275).
T1 construct: expressed in transfected cells; host or cells: COS-7 cells (ATCC)
T1 sequence (P10275 1-920): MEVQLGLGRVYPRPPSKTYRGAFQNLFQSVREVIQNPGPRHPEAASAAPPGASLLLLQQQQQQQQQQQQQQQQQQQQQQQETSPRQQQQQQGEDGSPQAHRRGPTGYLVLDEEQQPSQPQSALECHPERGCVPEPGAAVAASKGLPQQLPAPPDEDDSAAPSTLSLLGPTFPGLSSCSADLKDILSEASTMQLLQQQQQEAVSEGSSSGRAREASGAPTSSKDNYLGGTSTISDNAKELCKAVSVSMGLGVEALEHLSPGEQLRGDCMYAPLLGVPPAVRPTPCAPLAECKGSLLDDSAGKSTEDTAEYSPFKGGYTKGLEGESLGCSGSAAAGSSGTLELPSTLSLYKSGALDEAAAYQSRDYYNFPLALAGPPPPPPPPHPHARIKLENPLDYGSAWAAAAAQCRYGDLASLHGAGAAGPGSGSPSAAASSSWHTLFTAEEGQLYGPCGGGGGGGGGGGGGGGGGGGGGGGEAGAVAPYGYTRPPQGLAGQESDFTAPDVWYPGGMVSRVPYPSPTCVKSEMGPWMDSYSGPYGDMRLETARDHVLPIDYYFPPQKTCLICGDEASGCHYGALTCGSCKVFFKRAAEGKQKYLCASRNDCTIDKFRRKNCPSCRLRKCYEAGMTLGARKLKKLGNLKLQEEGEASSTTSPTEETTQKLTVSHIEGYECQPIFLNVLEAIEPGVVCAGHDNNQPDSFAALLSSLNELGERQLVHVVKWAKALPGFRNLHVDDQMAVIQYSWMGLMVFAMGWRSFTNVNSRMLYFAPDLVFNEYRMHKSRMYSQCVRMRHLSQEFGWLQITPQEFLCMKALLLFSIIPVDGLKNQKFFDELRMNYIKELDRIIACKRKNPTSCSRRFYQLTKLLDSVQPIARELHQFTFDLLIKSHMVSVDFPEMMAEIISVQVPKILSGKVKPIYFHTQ
Description: Antagonist activity for AR: MMTV-luc reporter transcription in COS-7 cells transfected with human AR, stimulated with DHT. The procedure:
Antagonist activity for AR was evaluated according to the following method. COS-7 cells (ATCC) were transfected with pMMTV-luc vector (reporter plasmid having, as an androgen response element, […] long terminal repeat) and pEX-hAR vector (human androgen receptor expression vector: which expresses human AR gene under control of CMV promoter) by using Nucleofector (registered trademark) Kit R (Lonza) as a transfection reagent and Amaxa (Lonza). The COS-7 cells obtained after transfection were seeded in a clear bottom 96 well microplate (BD) at 1.5×10^4/well with phenol red free RPMI1640 containing 10% charcoal-treated fetal bovine serum (hereinbelow, DCC-FBS) (hereinbelow, the medium is referred to as an evaluation medium), and then cultured overnight. […] Then, the transcription activity value of the reporter plasmid was measured. The transcription activity was measured by using Bright-Glo™ Luciferase Assay System (Promega).

The test system of test [2] is Human prostate cancer cells LNCaP. In words: Inhibitory activity on androgen-dependent proliferation of prostate cancer cells. The settings on record: 1 nmol/L DHT, 72 hours, Cell Counting Kit-8, read-out: Proliferation inhibition concentration GI50 value. As for the experimental part: Human prostate cancer cells LNCaP (Non-Patent Literature 5) having […] androgen receptor gene were seeded in a clear bottom 96 well microplate (BD) at 4.0×10^3/well with phenol red free RPMI1640 containing 5% DCC-FBS (hereinbelow, the medium is referred to as an evaluation medium), and then cultured overnight. […] Then, the number of viable cells was measured. The number of viable cells was measured by using Cell Counting Kit-8 (DOJINDO LABORATORIES).
On the technique in general: Tetrazolium dyes change colour on reduction, which living cells bring about.

The mark [3] stands for this setting: 10000 nmol/L, 48 hours, vs evaluation medium control.
The mark [4] stands for this setting: COS-7 cells with pMMTV-luc and pEX-hAR, 1 nmol/L DHT, 24 hours, read-out: AR antagonist IC50.

Broadly, the IC50 is the concentration at which inhibition is half-maximal. For `CC(C)(C)OC(=O)NCCNC(=O)c1ccc(Nc2ncnc3c2CCN(c2ccc(C#N)c(C(F)(F)F)c2)C3)nn1` [Example 8, tert-butyl (2-(6-((7-(4-cyano-3-(trifluoromethyl)phenyl)-5,6,7,8-tetrahydropyrido[3,4-d]pyrimidin-4-yl)amino)pyridazine-3-carboxamido)ethyl)carbamate], the inhibition at 10 µM in the test with AR expression in LNCaP (48 h) is above 50%. In test [1], the “Cell proliferation rate (%)” value was 5.3%. Also, half-maximal inhibition against human androgen receptor (IC50) was put at 59 nM. In test [2], the GI50 stood at 1100 nM.
For the compound `N#Cc1ccc(N2CCc3c(ncnc3Nc3ccc(C(=O)NC4CC4)nn3)C2)cc1C(F)(F)F` [Example 9, 6-((7-(4-cyano-3-(trifluoromethyl)phenyl)-5,6,7,8-tetrahydropyrido[3,4-d]pyrimidin-4-yl)amino)-N-cyclopropylpyridazine-3-carboxamide], in the test with AR expression in LNCaP (48 h), the inhibition at 10 µM was above 50%. In addition, in test [1], the “Cell proliferation rate (%)” value is −3.0%. The compound further returned an IC50 against human androgen receptor of 30 nM. For the same compound, in test [2], the GI50 was found to be 510 nM.
On to `C#CCNC(=O)c1ccc(Nc2ncnc3c2CCN(c2ccc(C#N)c(C(F)(F)F)c2)C3)nn1` [Example 11, 6-((7-(4-cyano-3-(trifluoromethyl)phenyl)-5,6,7,8-tetrahydropyrido[3,4-d]pyrimidin-4-yl)amino)-N-(prop-2-yn-1-yl)pyridazine-3-carboxamide], for which, in the test on AR expression in LNCaP (48 h), the inhibition at 10 µM was above 50%. Moreover, the “Cell proliferation rate (%)” value in test [1] was determined as 4.9%. At human androgen receptor, the midpoint of inhibition, the IC50, lay at 25 nM. Also, in test [2], the GI50 was found to be 950 nM.
As to `CC(C)(O)c1ccc(Nc2ncnc3c2CCN(c2ccc([N+](=O)[O-])c(Cl)c2)C3)nc1` [Example 13, 2-(6-((7-(3-Chloro-4-nitrophenyl)-5,6,7,8-tetrahydropyrido[3,4-d]pyrimidin-4-yl)amino)pyridin-3-yl)propan-2-ol], the inhibition at 10 µM with AR expression in LNCaP (setting [3]) was above 50%. The “Cell proliferation rate (%)” value in test [1] came to 7.3%. Further, the IC50 at human androgen receptor (setting [4]) came to 32 nM. Further, the GI50 in test [2] turned out to be 300 nM.
As to `CC(C)(O)c1ccc(Nc2ncnc3c2CCN(c2ccc([N+](=O)[O-])c(C(F)(F)F)c2)C3)nc1` [Example 14, 2-(6-((7-(4-nitro-3-(trifluoromethyl)phenyl)-5,6,7,8-tetrahydropyrido[3,4-d]pyrimidin-4-yl)amino)pyridin-3-yl)propan-2-ol], the inhibition at 10 µM in the test with AR expression in LNCaP (48 h) is above 50%. In addition, in test [1], the “Cell proliferation rate (%)” value was found to be 1.4%. For the same compound, at human androgen receptor, the IC50 was 70 nM. In addition, the GI50 in test [2] was 1200 nM.
For `Cc1cc(N2CCc3c(ncnc3Nc3ccc(C(C)(C)O)cn3)C2)ccc1[N+](=O)[O-]` [Example 16, 2-(6-((7-(3-methyl-4-nitrophenyl)-5,6,7,8-tetrahydropyrido[3,4-d]pyrimidin-4-yl)amino)pyridin-3-yl)propan-2-ol], the inhibition at 10 µM in the test with AR expression in LNCaP (setting [3]) was above 50%. The “Cell proliferation rate (%)” value in test [1] is recorded as −1.8%. On human androgen receptor (setting [4]), the IC50 turned out to be 70 nM. Further, the GI50 in test [2] worked out at 230 nM.
As for `CC(C)(O)c1ccc(Nc2ncnc3c2CCN(c2ccc([N+](=O)[O-])c(Br)c2)C3)nc1` [Example 17, 2-(6-((7-(3-bromo-4-nitrophenyl)-5,6,7,8-tetrahydropyrido[3,4-d]pyrimidin-4-yl)amino)pyridin-3-yl)propan-2-ol], in the test with AR expression in LNCaP (48 h), the inhibition at 10 µM was above 50%. The “Cell proliferation rate (%)” value in test [1] was found to be 9.7%. Moreover, the IC50 on human androgen receptor is 30 nM. For the same compound, the GI50 in test [2] worked out at 1200 nM.
In the case of `CC(C)Oc1cc(N2CCc3c(ncnc3Nc3ccc(C(C)(C)O)cn3)C2)ccc1[N+](=O)[O-]` [Example 19, 2-(6-((7-(3-isopropoxy-4-nitrophenyl)-5,6,7,8-tetrahydropyrido[3,4-d]pyrimidin-4-yl)amino)pyridin-3-yl)propan-2-ol], the inhibition at 10 µM in the test with AR expression in LNCaP (setting [3]) is above 50%. For the same compound, in test [1], the “Cell proliferation rate (%)” value is recorded as 7.8%. On human androgen receptor (setting [4]), the IC50 worked out at 1300 nM. For the same compound, the GI50 in test [2] was 220 nM.
The like results for `COc1cc(N2CCc3c(ncnc3Nc3ccc(C(C)(C)O)cn3)C2)ccc1C#N` [Example 23, 4-(4-((5-(2-Hydroxypropan-2-yl)pyridin-2-yl)amino)-5,6-dihydropyrido[3,4-d]pyrimidin-7(8H)-yl)-2-methoxybenzonitrile] were, in that order, above 50%, 2.3%, 19 nM and 2600 nM.
With `O=C(NCC(F)(F)F)c1ccc(Nc2ncnc3c2CCN(c2ccc([N+](=O)[O-])c(C(F)(F)F)c2)C3)nn1` [Example 24, 6-((7-(4-Nitro-3-(trifluoromethyl)phenyl)-5,6,7,8-tetrahydropyrido[3,4-d]pyrimidin-4-yl)amino)-N-(2,2,2-trifluoroethyl)pyridazine-3-carboxamide], the inhibition at 10 µM with AR expression in LNCaP (setting [3]) is above 50%. Moreover, the “Cell proliferation rate (%)” value in test [1] is 7.8%. In addition, the IC50 on human androgen receptor (setting [4]) is 180 nM. The GI50 in test [2] was 790 nM.
With `COc1ccc(Nc2ncnc3c2CCN(c2ccc(C#N)c(C(F)(F)F)c2)C3)cc1OC` [Example 26, 4-(4-((3,4-Dimethoxyphenyl)amino)-5,6-dihydropyrido[3,4-d]pyrimidin-7(8H)-yl)-2-(trifluoromethyl)benzonitrile], the inhibition at 10 µM in the test with AR expression in LNCaP (48 h) is above 50%. In test [1], the “Cell proliferation rate (%)” value was found to be 4.5%. Also, the IC50 against human androgen receptor stood at 1100 nM. Also, the GI50 in test [2] stood at 1200 nM.
The like results for `N#Cc1ccc(N2CCc3c(ncnc3Nc3ccc(OC(F)(F)F)cc3)C2)cc1C(F)(F)F` [Example 27, 4-(4-((4-(trifluoromethoxy)phenyl)amino)-5,6-dihydropyrido[3,4-d]pyrimidin-7(8H)-yl)-2-(trifluoromethyl)benzonitrile] were, in that order, above 50%, 3.8%, 1000 nM and 1000 nM.
For the compound `N#Cc1ccc(N2CCc3c(ncnc3Nc3ccc(N4CC5(COC5)C4)cc3)C2)cc1Cl` [Example 28, 4-(4-((4-(2-oxa-6-azaspiro[3.3]heptan-6-yl)phenyl)amino)-5,6-dihydropyrido[3,4-d]pyrimidin-7(8H)-yl)-2-chlorobenzonitrile], the inhibition at 10 µM in the test with AR expression in LNCaP (48 h) is above 50%. In addition, the “Cell proliferation rate (%)” value in test [1] turned out to be 1.4%. On human androgen receptor, this compound gave an IC50 of 680 nM. Also, the GI50 in test [2] stood at 680 nM.
